*1 amine or outer side, *2 acyl side, *3 side chain or, on linkers, in order; H or OH if unused. Where a SMILES comes first, the peptide text is derived from it. [ ]: non-standard residue; d: D form. X1 = O=C(Cc1cccc(N=Nc2cccc(CN[*:1])c2)c1)[*:2]
Assays:
hOX2 [1] = biological target: T1, hOX2 (Homo sapiens, UniProt O43614); test: Radioligand competitive binding assay ([3H]EMPA); design: expressed in transfected cells; membranes
T1 sequence (O43614 1-444): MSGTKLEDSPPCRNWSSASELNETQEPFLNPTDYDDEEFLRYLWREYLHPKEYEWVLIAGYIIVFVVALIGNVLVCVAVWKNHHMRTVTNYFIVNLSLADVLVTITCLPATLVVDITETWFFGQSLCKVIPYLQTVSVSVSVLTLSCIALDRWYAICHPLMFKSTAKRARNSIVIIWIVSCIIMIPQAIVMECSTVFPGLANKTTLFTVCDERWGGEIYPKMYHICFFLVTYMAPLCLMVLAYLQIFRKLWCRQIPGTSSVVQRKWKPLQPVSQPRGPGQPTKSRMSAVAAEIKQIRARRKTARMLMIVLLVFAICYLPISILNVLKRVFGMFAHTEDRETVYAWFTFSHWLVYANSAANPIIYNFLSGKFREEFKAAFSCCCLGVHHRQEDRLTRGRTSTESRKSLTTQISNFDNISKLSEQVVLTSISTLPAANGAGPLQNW
Description: The affinity towards OX2 was studied in a competitive radioligand binding assay on membranes derived from HEK-293 cells stably transfected with the human receptor. [^3H]EMPA, an OX2-selective orthosteric antagonist, was used as radioactive tracer to quantify residual binding after competitive displacement in the presence of the unlabeled ligands.^3 Wild-type OX-B and almorexant, a non-selective OX1 and OX2 antagonist, served as controls.^4
[^3H]EMPA (specific activity 27 Ci/mmol) and almorexant were synthesized at Janssen Research & Development LLC (San Diego, CA), while orexin-B was obtained from Bachem (Torrance, CA).
Cell membranes were prepared from a stable pool of HEK-293 cells transfected with the human OX2. Test compounds were dissolved in DMSO (10 mM stock solutions) and diluted in Dulbecco’s phosphate-buffered saline supplemented with 0.1% bovine serum albumin (BSA). Competition studies were performed by incubating the membranes with the OX2-selective antagonist [^3H]EMPA (2 nM) and different concentrations of the test compounds (7 concentrations ranging from 10^−9 to 10^−6 M). After a 60-minute incubation at rt, binding reactions were filtered to separate the excess of free ligand from the membranes. Filters were then counted for radioactivity in a scintillation counter. Nonspecific binding was determined in the presence of 10 µM almorexant.
Specific binding was determined and plotted as a function of the concentration of the compound using GraphPad Prism v8.3.1 (GraphPad Software, San Diego, USA). Data were analyzed by nonlinear regression using a one-site competition model.

[2] = Resistance to photofatigue; type: physicochemical; settings: several UV (365 nm)/blue (455 nm) cycles of 3 min; 25 µM in PBS pH 7.4, 25 °C; UPLC
Experimental: Stability to photodegradation was evaluated by exposing a phOX sample (25 µM in PBS at pH 7.4 and 25 °C) to alternating intervals (3 min each) of UV and visible light illumination (365 and 455 nm, respectively). The trans-cis isomeric distributions under different illumination conditions were measured by integrating the area of the corresponding peaks after UPLC analysis. These values were then converted to isomer percentages and plotted. After several cycles, no reduction could be observed in the isomers’ peak area, thus confirming photorexin stability to photodegradation.

hOX2 [3] = biological target: T1, hOX2; test: FLIPR Tetra calcium mobilization assay, PFSK-1 cells; type: cell-based; settings: PFSK-1, hOX2; FLIPR; in words
Experimental: (§1) Samples of trans phOX were kept in the dark both prior to and during the whole duration of the experiment to avoid undesired photoconversion caused by environmental light. Unless differently stated, data for cis phOX were obtained by pre-illuminating the samples for 10 min with 365 nm UV light.
(§2) PFSK-1 cells were cultured in RPMI 1640 supplemented with 10% fetal bovine serum (FBS), 100 units/ml penicillin, and 100 µg/ml streptomycin. Chinese hamster ovary-K1 (CHO-K1) cells stably transfected to express human OX1 were cultured in Dulbecco’s Modified Eagle’s Medium/Nutrient Mixture F-12 Ham (DMEM/F12 1:1) medium supplemented with 10% FBS and 600 µg/ml G418. All cell lines were grown at 37 °C in 5% CO2.
(§3) Cells were plated at 50,000 cells/well in 96-well black-wall plates with poly-D-lysine-coated clear bottoms and grown overnight at 37 °C in 5% CO2. […] Calcium-mediated changes in fluorescence were monitored in a Fluorometric Imaging Plate Reader (FLIPR) Tetra instrument (Molecular Devices, USA). Fluorescence intensity was measured for 12 s to establish baseline fluorescence before addition of the test compound (20 µL/well) and further readings for a total of 155 s (excitation at 470–495 nm, detection at 515–575 nm). […]
(§4) Raw data from the FLIPR Tetra was exported as the difference between maximum and minimum fluorescence observed for each well. […] Agonist potencies (EC50) are expressed as means + SD.

hOX2 [4] = biological target: T1, hOX2; test: In vitro single-cell calcium imaging, tsA201-hOX2; type: cell-based; design: expressed in transfected cells; host or cells: tsA201 (transformed human kidney cells), transient, co-transfected with R-GECO1; settings: 100 nM, AUC normalized to dark-adapted phOX, mean, n = 20 cells
Experimental: Transformed human kidney tsA201 cells were purchased from the European Collection of Authenticated Cell Culture. Cells were maintained at 37 °C in a humidified atmosphere with 5% CO2 and grown in Dulbecco’s Modified Eagle’s Medium/Nutrient Mixture F-12 Ham (DMEM/F12 1:1) medium (Life Technologies), supplemented with 10% FBS (Life Technologies) and 1% penicillin/streptomycin (Sigma-Aldrich).
Clones of GFP-labelled orexin receptors were kindly provided by Prof. Jyrki Kukkonen and the exact protein sequences have been reported by Putula et al.. The plasmid for the genetically encoded calcium indicator R-GECO1 was acquired from Addgene. Cells were transiently transfected with hOX1 or hOX2 receptors and R-GECO1 with X-tremeGENE 9 DNA Transfection Reagent (Roche Applied Science) following the manufacturer’s instructions. After 24 h, cells were harvested with accutase (Sigma-Aldrich) and plated onto 16-mm glass coverslips (Fisher Scientific) pre-treated with poly-L-Lysine (Sigma-Aldrich) to allow cell adhesion. Experiments were performed using pre-confluent cultures between 48 and 72 h after transfection. […]
Images were analyzed using FIJI (ImageJ). Data were analyzed and processed using GraphPad Prism v8.3.1. Statistical differences were determined by one-way ANOVA followed by Tukey’s multiple comparison post-hoc test. […]

human OX1 = biological target: T2, human OX1 (Homo sapiens, UniProt O43613); test: FLIPR Tetra calcium mobilization assay, CHO-K1 cells; type: cell-based; settings: CHO-K1-hOX1; FLIPR; in words
T2 construct: expressed in transfected cells
T2 sequence (O43613 1-425): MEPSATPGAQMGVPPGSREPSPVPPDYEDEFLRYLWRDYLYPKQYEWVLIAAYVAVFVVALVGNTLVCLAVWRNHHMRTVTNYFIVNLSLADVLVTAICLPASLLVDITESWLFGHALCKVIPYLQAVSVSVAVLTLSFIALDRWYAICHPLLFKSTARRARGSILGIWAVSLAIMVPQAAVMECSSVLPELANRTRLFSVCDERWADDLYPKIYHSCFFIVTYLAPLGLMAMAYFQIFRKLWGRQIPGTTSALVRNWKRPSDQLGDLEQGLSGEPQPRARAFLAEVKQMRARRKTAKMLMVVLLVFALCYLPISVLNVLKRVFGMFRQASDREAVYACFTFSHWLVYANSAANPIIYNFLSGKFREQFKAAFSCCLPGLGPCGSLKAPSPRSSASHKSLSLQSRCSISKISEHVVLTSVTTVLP
Experimental: as §1, §2, §3, §4

OX1 receptor = settings: membrane-based binding assay; ref Langmead et al., 5 (SI); cited from earlier work
Description: Although the lack of binding with all three forms of OX-B - including the native ligand control - came unexpected, similar findings had already been observed for the OX1 receptor.

OX2 = settings: in words; cited from earlier work
Description: (§5) Among these, a family of neuroexcitatory peptides known as orexins (or hypocretins) is critically involved in regulating sleep and wakefulness, energy homeostasis, and reward. Orexin signaling is mediated by two closely related G protein-coupled receptors (GPCRs) – OX1 and OX2 (orexin) receptors – which are strongly conserved among mammals. While orexin cell bodies are concentrated in the hypothalamic area, orexin receptors are widely expressed in the central nervous system (CNS). Their endogenous ligands are two peptides, named ...

OX1 = settings: in words; cited from earlier work
Description: as §5

[5] = design: method as in 2 sources, one per row (each row's own in cited_ref): ref 75–77 = [75]; PMID 10087007; 75. Kastin AJ Akerstrom V Orexin A but not orexin B rapidly enters brain from blood by simple diffusion J Pharmacol Exp Ther 1999 289 219 223 10087007 || [76]; PMID 12626669; doi:10.1113/jphysiol.2002.038729; 76. John J Wu M-F Kodama T Siegel JM Intravenously administered hypocretin-1 alters brain amino acid release: an in vivo microdialysis study in rats J Physiol 2003 548 557 562 10.1113/jphysiol.2002.03 || [77]; PMID 14746374; doi:10.1093/sleep/26.8.953; 77. Fujiki N Yoshida Y Ripley B Mignot E Nishino S Effects of IV and ICV hypocretin-1 (orexin A) in hypocretin receptor-2 gene mutated narcoleptic dogs and IV hypocretin-1 replacement therapy in a hyp ||| ref 75 = [75]; PMID 10087007; 75. Kastin AJ Akerstrom V Orexin A but not orexin B rapidly enters brain from blood by simple diffusion J Pharmacol Exp Ther 1999 289 219 223 10087007; settings: intravenous administration or blood-free perfusion in mammals; cited from earlier work

## CNC(=O)[C@@H](c1ccccc1)N1CCc2cc(OC)c(OC)cc2[C@@H]1CCc1ccc(C(F)(F)F)cc1 [almorexant]
hOX2 [1]
  Ki: 3 nM
hOX2 [1]; control ligands, HEK-293-hOX2 membranes, [3H]EMPA 2 nM, 60 min rt, 10^-9 to 10^-6 M, two independent experiments in triplicates
  inhibition of [3H]EMPA binding: fully displaced the radioligand

## CC[C@H](C)[C@H](NC(=O)CNC(=O)[C@H](C)NC(=O)[C@H](C)NC(=O)Cc1cccc(N=Nc2cccc(CNC(=O)CNC(=O)[C@H](CO)NC(=O)[C@H](C)NC(=O)[C@H](CCC(N)=O)NC(=O)[C@H](CC(C)C)NC(=O)[C@H](CC(C)C)NC(=O)[C@H](CCCNC(=N)N)NC(=O)[C@H](CCC(N)=O)NC(=O)[C@H](CC(C)C)NC(=O)[C@H](CCCNC(=N)N)NC(=O)CNC(=O)[C@H](CCC(N)=O)NC(=O)[C@H](CC(C)C)NC(=O)CN)c2)c1)C(=O)N[C@@H](CC(C)C)C(=O)N[C@H](C(=O)N[C@@H](CCSC)C(N)=O)[C@@H](C)O [photorexin] (H-GLQGRLQRLLQASG[X1]AAGILTM-NH2)
[2]
  degradation or bleaching over light cycles: without significant degradation or bleaching
hOX2 [3]
  potency: high nanomolar potency
hOX2 [4]; 365 nm (cis-enriched)
  retained activity under UV, relative to dark-adapted peptide: 6%
hOX2 [4]; 455 nm after UV
  recovery of calcium response under blue light, relative to initial response: 52%
Human OX1
  potency: high nanomolar potency

## OX-A: endogenous orexin peptide with two disulfide bridges (QPLPDCCRQKTCSCRLYELLHGAGNHAAGILTL; not fully specified; Orexin-A; UniProt O43612 34-66, looked up)
OX1 receptor
  occupation of OX1 orthosteric site versus [3H]SB-674042: failed to occupy the receptor orthosteric site
OX2
  affinity at OX2: high affinity
OX1
  affinity at OX1: high affinity
[5]
  blood-brain barrier penetration: penetrate the blood-brain barrier by simple diffusion

Reference: article PMC11335211, “In vivo photocontrol of orexin receptors with a nanomolar light-regulated analogue of orexin-B” (Cellular and Molecular Life Sciences: CMLS, 2024)
